How the values were obtained:
[1] = target: NAALADase (Homo sapiens, UniProt Q04609); test: In vitro inhibition of NAALADase activity; format: biochemical; settings: for Ki: in vitro inhibition of NAALADase activity; for NAALADase inhibiting activity (in words): qualitative, compared with 2-(phosphonomethyl)pentanedioic acid
Method: Various compounds of the present invention were tested for in vitro inhibition of NAALADase activity.

[2] = system: mice; test: In vivo toxicity of NAALADase inhibitors in mice; settings: for Survival Rate After 5 days (%): observed 5 consecutive days
Description: The mice were subsequently observed two times per day for 5 consecutive days. The survival rate at each dose level is provided below in TABLE II.

[3] = system: angiogenesis in Matrigel™ plugs; test: In vivo assay of daily dosages of NAALADase inhibitors on angiogenesis (Matrigel plug with bFGF); design: species or system C57B1 female mice; settings: 7 days post injection
Method: C57B1 female mice age 8 to 10 weeks (5/group) were injected subcutaneously with 0.5 mL of Matrigel™, 150 ng/mL of the angiogenic factor basic FGF (bFGF) and with 0, 0.47 μM or 4.7 μM […] (PMPA). The injected Matrigel™ rapidly formed a gel. […] Seven days post Matrigel™ injection, Matrigel™ plugs were excised and histology was performed.
The concentrations of the daily dosages as well as the coinciding initial Matrigel™ plug compositions are provided below in TABLE IV.

[4] = system: angiogenesis in the Matrigel™/bFGF gels; test: In vivo assay of a continuous dosage of NAALADase inhibitors on angiogenesis (miniosmotic pumps, Matrigel/bFGF); design: species or system C57B1 female mice; settings: 13 days post injection
Method: Minipumps filled with vehicle (50 mM Hepes) were also implanted at this time. Twenty-four hours later, mice were each injected subcutaneously with 0.5 mL Matrigel™ and the 150 ng/mL of the angiogenic factor, basic FGF (bFGF). Thirteen days post Matrigel™/bFGF injection, the gels were recovered, fixed in formalin and sections were stained with Trichrome-Masson stain.

Sequence of NAALADase (Q04609 whole entry): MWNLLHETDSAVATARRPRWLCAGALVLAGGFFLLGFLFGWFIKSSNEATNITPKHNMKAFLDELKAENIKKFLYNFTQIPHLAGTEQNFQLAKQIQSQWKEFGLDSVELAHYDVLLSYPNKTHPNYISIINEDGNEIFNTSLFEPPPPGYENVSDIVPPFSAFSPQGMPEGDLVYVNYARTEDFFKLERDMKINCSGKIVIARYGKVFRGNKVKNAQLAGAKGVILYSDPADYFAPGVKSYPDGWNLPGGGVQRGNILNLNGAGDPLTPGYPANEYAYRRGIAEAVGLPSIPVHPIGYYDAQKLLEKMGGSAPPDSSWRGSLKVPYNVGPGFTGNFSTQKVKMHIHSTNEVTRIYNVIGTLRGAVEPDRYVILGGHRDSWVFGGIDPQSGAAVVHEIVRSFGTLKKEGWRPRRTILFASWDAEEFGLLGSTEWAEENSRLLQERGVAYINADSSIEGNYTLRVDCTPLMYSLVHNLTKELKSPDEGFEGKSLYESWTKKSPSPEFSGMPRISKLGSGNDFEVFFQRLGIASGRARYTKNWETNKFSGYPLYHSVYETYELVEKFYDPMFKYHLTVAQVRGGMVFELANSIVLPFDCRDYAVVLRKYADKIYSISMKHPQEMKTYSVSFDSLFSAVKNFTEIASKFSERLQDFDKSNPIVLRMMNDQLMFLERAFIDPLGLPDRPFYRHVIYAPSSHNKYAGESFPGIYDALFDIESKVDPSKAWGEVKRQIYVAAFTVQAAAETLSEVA

| Ki [1] [nM] | SMILES | further results |
| --- | --- | --- |
| 34.1 | O=C(O)CCC(CP(=O)(O)Cc1ccccc1)C(=O)O (stereo not drawn) | – |
| 35.9 | O=C(O)CCC(CP(=O)(O)c1ccccc1)C(=O)O (stereo not drawn) | – |
| 114 | CCCCP(=O)(O)CC(CCC(=O)O)C(=O)O (stereo not drawn) | – |
| 148 | O=C(O)CCC(CP(=O)(O)CCc1ccccc1)C(=O)O (stereo not drawn) | – |
| 232 | O=C(O)CCC(CP(=O)(O)CCCc1ccccc1)C(=O)O (stereo not drawn) | – |
| 22.7 | O=C(O)CCC(CP(=O)(O)Cc1c(F)c(F)c(F)c(F)c1F)C(=O)O (stereo not drawn) | – |
| 22.5 | O=C(O)CCC(CP(=O)(O)Cc1cccc(C(F)(F)F)c1)C(=O)O (stereo not drawn) | – |
| 12.7 | O=C(O)CCC(CP(=O)(O)CC(CCC(=O)OCc1ccccc1)C(=O)OCc1ccccc1)C(=O)O (stereo not drawn) | – |
| 0.57 | O=C(O)CCC(CP(=O)(O)CC(CCC(=O)O)C(=O)O)C(=O)O (stereo not drawn) | – |
| 1.5 | CC(CP(=O)(O)CC(CCC(=O)O)C(=O)O)C(=O)O (stereo not drawn) | – |
| 313 | O=C(O)CCC(CP(=O)(O)C(NCc1ccccc1)c1ccccc1)C(=O)O (stereo not drawn) | – |
| 51.8 | O=C(O)CCC(CP(=O)(O)CNCc1ccccc1)C(=O)O (stereo not drawn) | – |
| 118 | CC(=O)NCP(=O)(O)CC(CCC(=O)O)C(=O)O (stereo not drawn) | – |
| 34.5 | O=C(O)CCC(CP(=O)(O)CN1C(=O)c2ccccc2C1=O)C(=O)O (stereo not drawn) | – |
| 2.5 | COc1ccc(NCP(=O)(O)CC(CCC(=O)O)C(=O)O)cc1 (stereo not drawn) | – |
| 5.2 | Cc1ccc(NCP(=O)(O)CC(CCC(=O)O)C(=O)O)cc1 (stereo not drawn) | – |
| 75 | O=C(O)CCC(CP(=O)(O)CNC(=O)Nc1ccccc1)C(=O)O (stereo not drawn) | – |
| – | O=C(O)CCC(CP(=O)(O)O)C(=O)O (stereo not drawn) [2-(phosphonomethyl)pentanedioic acid] | Survival Rate After 5 days (%) ([2]; dose 1 mg/kg): 100%; Survival Rate After 5 days (%) ([2]; dose 5 mg/kg): 100%; Survival Rate After 5 days (%) ([2]; dose 10 mg/kg): 100%; Survival Rate After 5 days (%) ([2]; dose 30 mg/kg): 100%; Survival Rate After 5 days (%) ([2]; dose 100 mg/kg): 100%; Survival Rate After 5 days (%) ([2]; dose 300 mg/kg): 100%; Survival Rate After 5 days (%) ([2]; dose 500 mg/kg): 66.7%; Toxicity to mice (in words) ([2]; doses 1 to 500 mg/kg): non-toxic to mice; NAALADase inhibiting activity (in words) [1]: high NAALADase inhibiting activity; Angiogenic response in Matrigel™ plugs (histology) ([3]; 3 mg/kg daily subcutaneous injection, 0.47 μM in Matrigel): decreased neovasculature or angiogenesis; Angiogenic response in Matrigel™ plugs (histology) ([3]; 3 mg/kg daily subcutaneous injection, 0.47 μM in Matrigel, listed as PMPA): decrease in blood vessels or angiogenesis; Angiogenic response in Matrigel™ plugs (histology) ([3]; 30 mg/kg daily subcutaneous injection, 4.7 μM in Matrigel): decreased neovasculature or angiogenesis; Angiogenic response in Matrigel™ plugs (histology) ([3]; 30 mg/kg daily subcutaneous injection, 4.7 μM in Matrigel, listed as PMPA): decrease in blood vessels or angiogenesis; Angiogenic response in Matrigel™/bFGF gels ([4]; 1 μg/day continuous by minipump): strong angiogenic response; Angiogenic response in Matrigel™/bFGF gels ([4]; 10 μg/day continuous by minipump): significantly decreased angiogenesis; Angiogenic response in Matrigel™/bFGF gels ([4]; 100 μg/day continuous by minipump): significantly decreased angiogenesis |
| – | O=C(O)CC(CP(=O)(O)O)C(=O)O (stereo not drawn) [2-(phosphonomethyl)succinic acid] | NAALADase inhibiting activity (in words) [1]: much lower NAALADase inhibiting activity |
| 1.89 ± 0.19 | O=C(O)CCC(CP(=O)(O)CCC(=O)O)C(=O)O (stereo not drawn) [2-[[(2-carboxyethyl)hydroxyphosphinyl]-methyl]pentanedioic acid] | NAALADase inhibiting activity (in words) [1]: lower NAALADase inhibiting activity |

Source: patent publication US20030064912A1, “Pharmaceutical compositions and methods of inhibiting angiogenesis using NAALADase inhibitors” (priority 1998, published 2003)
